Measured values from patent US20230390274A1 (EPIRIUM BIO INC., priority 2020, published 2023).
Values after ≈ are worked out from the molar mass of the structure shown.

Experiments:
[1] = Pharmacokinetic study in rat, intravenous 1 mg/kg; assay type: in vivo
Protocol: Each mice PK study consisted of nine male C57BL/6 mice per group with sparse sampling design (n=3 mice per time point). The animals from intravenous groups were dosed with solution formulation of compounds via tail vein at 1 mg/kg dose. Ten compounds were screened in mice and one compound (the compound of Formula IV) was dosed in rat (n=3; serial sampling) following intravenous dose administration at 1 mg/kg dose. The solution formulation for compounds was prepared in 5% v/v DMA, 25% v/v PEG-400, and 70% v/v HPBCD (30% w/v); 15% v/v DMA, 5% Solutol HS-15, and 80% 1:1 PEG-300: Normal saline (2.25%); or 10% v/v DMA, 25% PEG-400, and 65% HPBCD (30% w/v solution). The dosing volume was 1 and 5 mL/kg for intravenous dose in rat and mice respectively. Blood samples (approximately 60 μL from mice and 120 μL from rats) were collected under light isoflurane anesthesia from a set of three mice at 0, 0.08, 0.25, 0.5, 1, 2, 4, 8, 12, and 24 hours post-dose. Plasma was harvested by centrifugation of blood and stored at −70±10° C. until analysis. Fit-for purpose LC-MS/MS method was developed and samples were processed by protein precipitation method. Non-Compartmental-Analysis tool of Phoenix WinNonlinR (Version 8.0) was used to assess the pharmacokinetic parameters. The areas under the concentration time curve (AUClast and AUCinf) were calculated by linear trapezoidal rule. The terminal elimination rate constant, Ke was determined by regression analysis of the linear terminal portion of the log plasma concentration-time curve. The terminal half-life (T1/2) was estimated at 0.693/ke. CLIV=Dose/AUCinf; Vss=MRT×CLIV.

[2] = Compound stability in mouse liver microsomes; assay type: in vitro ADME; conditions: 37° C.
Protocol: A microsomal mixture comprising mouse liver microsomes and a potassium phosphate buffer was prepared at a concentration of 1.428 mg/mL in 2 mL tubes. 1.6 μL of test compound or imipramine as a positive control was added to the mixture, and 70 μL was transferred to a 96 well plate and pre-incubated at 37° C. for 5 minutes. After pre-incubation, […] 30 μL of NADPH (3.33 mM in potassium phosphate buffer) was added. The reaction mixtures were incubated at 37° C. for 15 and 45 minutes. Reactions without NADPH and buffer controls (minus NADPH) were conducted to rule out non-NADPH metabolism and chemical instability in the incubation buffer. The reactions were quenched with 100 μL ice cold acetonitrile containing an internal standard. The plates were centrifuged at 4000 RPM for 15 minutes and 100 μL aliquots were analyzed for parent compound disappearance by LC-MS/MS. The peak area ratios of analyte versus internal standard were used to calculate the percent remaining at the end of 45 minutes.

15-PGDH/HPGD = 15-PGDH/HPGD (Homo sapiens (Human), UniProt P15428); assay: hPGDH inhibitor screening biochemical assay; conditions: Table 1, PGDH inhibitors with a 6-5 ring core; read-out: hPGDH: IC50
Outline: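 10 nM recombinant 15-PGDH was preincubated with compound (10-point) for 10 min at 37° C. in 50 mM Tris-HCl pH 7.5, 0.01% Tween 20. Then 15 μM PGE2 and 0.25 mM NAD+ were added for 10 min at rt. NADH fluorescence (ex/em 340/485 nm) gave % inhibition versus 1% DMSO and a four-parameter IC50.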

Solubility at pH 7.4 = assay type: physicochemical; conditions: aqueous buffer, Table 1, 6-5 ring core

Sequence of 15-PGDH/HPGD (P15428 whole entry): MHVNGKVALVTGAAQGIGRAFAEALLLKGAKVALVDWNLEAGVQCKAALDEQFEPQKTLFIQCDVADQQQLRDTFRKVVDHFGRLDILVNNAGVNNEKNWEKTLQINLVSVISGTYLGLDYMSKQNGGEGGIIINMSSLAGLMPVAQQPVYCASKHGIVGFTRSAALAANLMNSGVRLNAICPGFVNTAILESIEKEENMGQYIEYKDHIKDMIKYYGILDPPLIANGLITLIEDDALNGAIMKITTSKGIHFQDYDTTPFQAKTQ

AUCinf [1] [ng·h/mL]	AUClast [1] [ng·h/mL]	C0/Cmax [1] [ng/mL]	CL [1] [mL/min/kg]	T1/2 [1] [min]	Vss [1] [L/kg]	% Remaining at 45 Minutes (Mouse Liver Microsomes + NADPH) [2] [%]	IC50 (15-PGDH/HPGD) [nM]	solubility (Solubility at pH 7.4) [µM]	SMILES
106.55	105.58	985.98	158.60	7.2	0.86	71	–	–	O=C(c1cnc2c(ccn2-c2ccc(CO)cc2)c1)N1CCCCC1 [Formula IV]
–	–	–	–	–	–	–	1.5	21 (≈ 7.16 µg/mL)	O=C(c1cnc2c(c1)ncn2-c1cccc(Cl)c1)N1CCCCC1 [drawing 103]
